Experimental findings from patent publication US20240299568A1, “BONE-SPECIFIC DELIVERY OF POLYPEPTIDES” (William Marsh Rice University, priority 2021, published 2024) are described below.

For this experiment, the system named is MDA-MB-361 cells. The experiment can be described thus: MDA-MB-361 bone micrometastasis xenograft (IIA injection).
Where [1] appears, read: significance vs PBS group, end of experiment.

Turning to `NCCCC(O)(P(=O)(O)O)P(=O)(O)O` [ALN, Alendronate], the “bone mass loss of femurs (microCT)” value (82 days after tumor implantation) was “significant losses of bone mass”. In addition, where the note is “ALN 10 μg/kg, Tras, Tras-ALN 1 mg/kg, retro-orbital twice a week”, the “development of micrometastases / lesions (BLI imaging)” value is given as “accumulated rapidly”. Moreover, the “tumor burden, histomorphometric analysis of tibiae and femurs” value (H&E bone sections) is given as “high tumor burdens”. Also, the “BLI Fold-increase” value (significance vs PBS group, BLI of day 87/BLI of day 6, two-way ANOVA) is “NS (NS represents P > 0.05)”. Further, the “Osteoclast activity Osteoclast number” value (significance vs PBS group, TRAP-stained tibia/femur sections, end of experiment) was “* (* P < 0.05)”. In addition, under setting [1], the “Osteoclast activity Serum Calcium” value is recorded as “NS (NS represents P > 0.05)” and the “Osteoclast activity Serum TRACP 5b” value is “NS (NS represents P > 0.05)”. Also, the Survival entry (significance vs PBS group, endpoint BLI intensity over 10^7, log-rank test) is on record as “NS (NS represents P > 0.05)”. For the setting “significance vs PBS group, whole-body BLI over the course of the experiment, two-way ANOVA”, the “BLI Progression” value is reported as “NS (NS represents P > 0.05)”.
